Data as given in patent US7659273B2, “Composition for accelerating bone fracture healing” (Mitsubishi Tanabe Pharma Corporation, priority 2001, dated 2010).

How the values were obtained:
[1] = system: fibula fracture region of streptozotocin-induced diabetic rats; assay: Acceleration of fracture healing in diabetic rat (Experimental Example 7); type: in vivo; settings: Example 7-(1) microspheres; for Bone mineral content: 6 weeks after sutura, DXA at fracture region; for Breaking Energy / Breaking force: 6 weeks, three-point bending test
Method: CD (SD) IGS rats (Charles River Japan, Inc.; male; 7-week-old) were housed for seven days at room temperature (23±2° C.) and 55±15% humidity. During the housing period, the rats were free to access commercially available food (from Oriental Bio Service; CRF-1).
Streptozotocin (Sigma), which induce diabetes, was dissolved in citrate-buffered saline (pH 4.5) to obtain 0.05 M streptozocin solution and injected intravenously to each rat at 60 mg/kg. One week later, blood was collected from tail end and blood-glucose level was determined with a blood-glucose monitor (Molecular Devices; M-SPmax250). Based on the measurements, rats were divided into groups so that a significant difference in glucose level may not occur among groups. The average blood-glucose level was from 426.12 to 428.23 mg/dl.
Under ether anesthesia, the left-lower legs of rats were shaved and sterilized with 70% aqueous ethanol, fibulas were exposed with scissors and cut with nail scissors (Natsume Seisakusyo; B17). The cut sections of the fibula were re-matched with tweezers. For the test groups (12 rats/group), the drug-containing microspheres prepared in Example 7-(1), which contains 0.03 or 0.1 mg of Compound (2), were placed around the cutting site using spatula followed by suturing with silk thread. For the control group (12 rats/group), the same amount of drug-free microspheres prepared in Control Example 2 were placed around the cutting site using spatula followed by suturing with silk thread. Following the suturing, every animal was sterilized with 70% aqueous ethanol. After six weeks from the sutura, under ether anesthesia, rats were sacrificed by laparotomy with bleeding, and the fibulas were excised.
Eight fibulas were randomly selected from those excised at 6 weeks after sutura and subjected to DXA bone densitometer (from Aloka; DCS-600) to determine bone mineral density and bone mineral content at fracture region, (scanning width: 1 mm).
The fibula used in the determination of mineral content was subjected to a three-point bending test with bone strength tester (from Muromachi Kikai Co., Ltd.; TK-252C) to determine bone strength. Briefly, the fibula was supported by two supports apart from each other by 8 mm and the cut section was positioned at the middle of these supports, i.e., 4 mm apart from the respective two supports. Loading (3 mm/minute) from upper direction was kept on the middle point (fracture section) of fibula until fibula begins to fracture. The maximum pressure necessary to break the bone was defined as the breaking force. The total energy spent to break the bone was defined as the breaking energy.
Four fibulas excised at 6 weeks after sutura was photographed with micro focus magnification radiography system (Fuji Photo Film Co. Ltd.; μFX-1000; tube voltage: 25 kV; tube current: […]; 20 seconds).

[2] = system: rabbit costicartilage cells; assay: Cartilage matrix (proteoglycan) production, Alcian blue staining (Experimental Examples 3 and 4); type: cell-based; settings: summary of Tables 10 and 11
From the text: Costicartilages were isolated from NZ line rabbit (Kitayama Labes., Co Ltd.; male; 4-week-old) and soaked into Hank's balanced salt solution (calcium- and magnesium-free; LifeTech Co., Ltd.; hereinafter, referred to as “HBSS”). One costicartilage and one costa were excised together, the adipose tissue and the muscle tissue were removed and then, the proliferating chondrocyte layer of costicartilage was excised. The collected proliferating chondrocyte layer was cut into sections with a surgical knife (FEATHER Safety Razor Co., Ltd.) and the all proliferating chondrocyte layer sections from 4 rabbits were combined in a centrifuge tube. To the centrifuge tube was added 40 ml of HBSS (pH 7.2) supplied with 0.1% tetrasodium ethylenediamine tetraacetate to obtain suspension of the proliferating chondrocyte layer sections, which was shaken at 37° C. for 20 minutes and centrifuged (1500 rpm, 10 minutes). The supernatant was aspirated off, and 40 ml of HBSS (pH 7.2) supplied with 0.2% trypsin was added to the tube to suspend the precipitates and shaken at 37° C. for 1 hour. The tube was centrifuged (1500 rpm, 10 minutes), and the supernatant was aspirated off. The precipitates were washed twice with HBSS, suspended in 100 ml of HBSS supplied with 0.1% collagenase (Wako Pure Chemical Industries, Ltd., 034-10533) and shaken at 37° C. for 3 hours. The content of the tube was passed through the Cell Strainer (pore size 40 μm) and the filtrate was divided into four centrifuge tubes. To each of all four tubes was added 40 ml of medium (α-MEM, LifeTech Co., Ltd.), and the tubes were centrifuged (1500 rpm, 10 minutes). The supernatant was aspirated off, and the resultant precipitates were collected in one tube with Pipetman. After addition of 40 ml of the same medium, the tube was re-centrifuged (1500 rpm, 10 minutes). Washing procedure comprising addition of medium followed by centrifugation was repeated additional three times. The precipitates were suspended in the same medium to give an about 5 ml suspension, and the cell number was counted.
The suspension of costicartilage cell described above was added to 24-well plate at 50,000 cells per well (day 1). […]
After removing the medium, cells in each well were fixed by addition of 1 ml of neutral buffer containing 4% paraformaldehyde and incubation for 30 minutes at room temperature. […] Absorbance at 620 nm was measured, and cartilage matrix amount (proteoglycan production amount) in each well was estimated, and proteoglycan production rate (%) of each test compound for vehicle (100%) was calculated.
The cartilage matrix (proteoglycan) production was determined using other compounds (compounds (52)-(55) and Compound (2) for comparison) in exactly the same manner as Experimental Example 3 above.

SMILES: CCOc1cc2cc(CO)c(CO)c(-c3ccnc(-n4nc(-c5cccnc5)c5ccccc5c4=O)c3)c2cc1OCC [Compound (2)]
- Bone mineral content ([1]; drug content 0.03 mg): 13.69 ± 0.96 mg
- Breaking Energy ([1]; drug content 0.03 mg): 1.53 ± 0.39 mJ
- Breaking force ([1]; drug content 0.03 mg): 8.13 ± 1.20 N
- Bone mineral content ([1]; drug content 0.1 mg): 14.60 ± 0.69 mg
- Breaking Energy ([1]; drug content 0.1 mg): 2.91 ± 0.82 mJ
- Breaking force ([1]; drug content 0.1 mg): 11.75 ± 2.14 N
- cartilage matrix (proteoglycan) production promoting effect (in words) [2]: remarkable matrix production promoting effect
